According to US20050282743A1, “Molecular interactions in cells” (Arbor Vita Corporation, priority 2001, published 2005):
Peptide text beside a SMILES is read from it. * marks the point of attachment. Biotin = O=C1N[C@H]2[C@H](CS[C@H]2CCCCC(=O)*)N1

Target: T1, Mint 1 (PDZ Domain 1, 2) (Homo sapiens, UniProt Q02410)
T1 construct: When more than one PDZ domain was cloned, the DNA portion cloned represents the PDZ domains and the cDNA portion located between individual domains; made in house; host or cells: E. coli (DH5alpha, BL21 or JM109)
T1 sequence (Q02410 652-828 limits assumed): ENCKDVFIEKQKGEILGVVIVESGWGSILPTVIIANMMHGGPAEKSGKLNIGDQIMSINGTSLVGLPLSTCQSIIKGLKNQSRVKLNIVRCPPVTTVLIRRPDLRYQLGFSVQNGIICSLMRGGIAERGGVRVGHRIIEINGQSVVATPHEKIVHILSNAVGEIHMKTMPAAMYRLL
Assay: G' assay, TABLE 12
Assay type: binding
Settings: A450 nm class of biotinylated PL peptide bound; 0 in conc columns = peptide 10 uM, protein 5 ug/ml
How it was run: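 PL peptide binding to PDZ domain protein, peptide at 10 uM; protein at 5 ug/ml unless another concentration is listed for Kd determination. Bound peptide read at A450 nm and binned into classes 0–5.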

Question: Which Classification does the source give for `CC(C)C[C@H](NC(=O)[C@H](C)NC(=O)[C@@H](NC(=O)[C@@H](NC(=O)[C@H](Cc1c[nH]cn1)NC(=O)[C@H](CC(C)C)NC(=O)CNC(=O)[C@H](CCC(N)=O)NC(=O)CNC(=O)CNC(=O)[C@H](C)NC(=O)[C@H](C)NC(=O)[C@H](CCCNC(=N)N)NC(=O)[C@H](C)NC(=O)[C@H](CO)NC(=O)[C@H](CC(=O)O)NC(=O)[C@H](CC(=O)O)NC(=O)[C@H](Cc1c[nH]c2ccccc12)NC(=O)[C@H](C)NC(=O)CCCC[C@@H]1SC[C@@H]2NC(=O)N[C@@H]21)C(C)C)[C@@H](C)O)C(=O)O` [LPAP] (Biotin-AWDDSARAAGGQGLHVTAL-OH; C-terminus assumed) here?
Answer: The Classification was 1 (A450 nm 0-1).
